Structures are written as SMILES. Read-outs that look alike come from different tables or passages of the source.

Holding throughout (assay): biochemical
Holding throughout (parameters): KINOMEscan active site-directed competition binding assay (DiscoveRx), 456 kinases, per cent of control at 300 nM
What all share (details): read-out: Percent of Control (%)

The target in one experiment is AURKB (Homo sapiens, UniProt Q96GD4). The procedure, abridged:
(§1)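 Single-concentration selectivity screen: compound 300 nmol/L; 456-kinase panel; active-site-directed competition binding read-out.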

A further experiment addresses T1, S6K1 (Homo sapiens, UniProt P23443).
T1 construct: gene RPS6KB1
The procedure, abridged: as §1

The target of a further experiment is NEK2 (Homo sapiens, UniProt P51955). The procedure, abridged: as §1
Another experiment deals with BMPR1A (Homo sapiens, UniProt P36894). Put shortly: as §1
The target in a further experiment is RET(V804L) (Homo sapiens, UniProt P07949, V804L). The procedure, abridged:
as §1

The target of a further experiment is BMPR1B (Homo sapiens, UniProt O00238). The procedure, abridged: as §1
The target in the next experiment is T2, PCTK2 (Homo sapiens, UniProt Q00537).
T2 construct: gene CDK17
Put shortly: as §1

The next experiment has as its target SBK1 (Homo sapiens, UniProt Q52WX2). Put shortly:
as §1

In another experiment the target is CSNK1D (Homo sapiens, UniProt P48730). The procedure, abridged:
as §1

A further experiment has as its target STK35 (Homo sapiens, UniProt Q8TDR2). The procedure, abridged:
as §1

The target in the next experiment is T3, PYK2 (Homo sapiens, UniProt Q14289).
T3 construct: gene PTK2B
Put shortly: as §1

The target of another experiment is ALK(C1156Y) (Homo sapiens, UniProt Q9UM73, C1156Y). Put shortly:
as §1

The next experiment has as its target DYRK2 (Homo sapiens, UniProt Q92630). Put shortly:
as §1

Another experiment addresses SRPK3 (Homo sapiens, UniProt Q9UPE1). The procedure, abridged:
as §1

The next experiment concerns the target MARK2 (Homo sapiens, UniProt Q7KZI7). Put shortly: as §1
The next experiment deals with GRK7 (Homo sapiens, UniProt Q8WTQ7). Put shortly: as §1
In the next experiment the target is SGK2 (Homo sapiens, UniProt Q9HBY8). The procedure, abridged:
as §1

The next experiment addresses LCK (Homo sapiens, UniProt P06239). Put shortly:
as §1

Another experiment concerns the target DYRK1A (Homo sapiens, UniProt Q13627). The procedure, abridged:
as §1

Experiment [1] has as its target T4, ABL1(H396P)-nonphosphorylated (Homo sapiens, UniProt P00519, H396P).
T4 construct: nonphosphorylated
Put shortly:
as §1

For experiment [2], the target named is T5, ABL1(H396P)-phosphorylated (Homo sapiens, UniProt P00519, H396P).
T5 construct: phosphorylated
The procedure, abridged: as §1

The next experiment concerns the target CASK (Homo sapiens, UniProt O14936). Put shortly:
as §1

Sequence of LCK (P06239 whole entry): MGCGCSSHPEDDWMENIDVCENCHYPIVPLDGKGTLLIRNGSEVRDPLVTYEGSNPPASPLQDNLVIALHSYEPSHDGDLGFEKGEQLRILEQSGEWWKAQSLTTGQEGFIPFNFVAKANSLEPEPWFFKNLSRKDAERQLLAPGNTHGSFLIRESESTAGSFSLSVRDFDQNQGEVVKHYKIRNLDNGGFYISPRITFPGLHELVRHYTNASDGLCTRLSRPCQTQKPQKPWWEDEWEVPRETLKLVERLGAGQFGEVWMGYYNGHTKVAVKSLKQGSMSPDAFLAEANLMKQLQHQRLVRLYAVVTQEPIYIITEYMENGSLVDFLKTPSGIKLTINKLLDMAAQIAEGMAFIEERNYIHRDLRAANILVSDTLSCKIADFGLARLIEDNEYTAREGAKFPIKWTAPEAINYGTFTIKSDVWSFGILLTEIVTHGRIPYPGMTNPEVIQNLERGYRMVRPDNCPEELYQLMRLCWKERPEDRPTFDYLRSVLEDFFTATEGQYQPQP
Sequence of NEK2 (P51955 whole entry): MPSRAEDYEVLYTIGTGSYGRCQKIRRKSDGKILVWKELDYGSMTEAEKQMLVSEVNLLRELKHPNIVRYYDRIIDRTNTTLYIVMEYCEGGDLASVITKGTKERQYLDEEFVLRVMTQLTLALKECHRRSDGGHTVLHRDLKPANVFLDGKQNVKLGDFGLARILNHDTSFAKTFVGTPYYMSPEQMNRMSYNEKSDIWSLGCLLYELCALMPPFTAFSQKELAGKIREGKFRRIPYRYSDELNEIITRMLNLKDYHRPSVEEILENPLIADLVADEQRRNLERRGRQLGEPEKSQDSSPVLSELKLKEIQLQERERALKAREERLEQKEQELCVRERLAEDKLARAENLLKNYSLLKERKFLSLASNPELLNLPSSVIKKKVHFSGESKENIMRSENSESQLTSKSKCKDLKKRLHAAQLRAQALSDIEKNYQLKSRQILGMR
Sequence of BMPR1A (P36894 whole entry): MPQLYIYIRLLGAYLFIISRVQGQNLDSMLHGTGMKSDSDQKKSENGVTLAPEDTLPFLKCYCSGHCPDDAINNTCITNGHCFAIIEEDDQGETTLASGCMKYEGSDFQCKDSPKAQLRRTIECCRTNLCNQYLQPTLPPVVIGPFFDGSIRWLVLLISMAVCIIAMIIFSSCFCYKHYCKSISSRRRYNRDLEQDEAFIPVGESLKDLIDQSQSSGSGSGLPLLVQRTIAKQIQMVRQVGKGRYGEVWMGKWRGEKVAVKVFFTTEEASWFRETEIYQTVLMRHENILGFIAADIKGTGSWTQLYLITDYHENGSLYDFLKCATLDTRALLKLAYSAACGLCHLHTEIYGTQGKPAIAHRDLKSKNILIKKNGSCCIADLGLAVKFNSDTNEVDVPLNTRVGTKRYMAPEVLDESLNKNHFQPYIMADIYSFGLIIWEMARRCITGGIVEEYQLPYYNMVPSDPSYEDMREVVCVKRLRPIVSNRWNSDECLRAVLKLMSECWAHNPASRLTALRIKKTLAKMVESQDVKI
Sequence of CASK (O14936 whole entry): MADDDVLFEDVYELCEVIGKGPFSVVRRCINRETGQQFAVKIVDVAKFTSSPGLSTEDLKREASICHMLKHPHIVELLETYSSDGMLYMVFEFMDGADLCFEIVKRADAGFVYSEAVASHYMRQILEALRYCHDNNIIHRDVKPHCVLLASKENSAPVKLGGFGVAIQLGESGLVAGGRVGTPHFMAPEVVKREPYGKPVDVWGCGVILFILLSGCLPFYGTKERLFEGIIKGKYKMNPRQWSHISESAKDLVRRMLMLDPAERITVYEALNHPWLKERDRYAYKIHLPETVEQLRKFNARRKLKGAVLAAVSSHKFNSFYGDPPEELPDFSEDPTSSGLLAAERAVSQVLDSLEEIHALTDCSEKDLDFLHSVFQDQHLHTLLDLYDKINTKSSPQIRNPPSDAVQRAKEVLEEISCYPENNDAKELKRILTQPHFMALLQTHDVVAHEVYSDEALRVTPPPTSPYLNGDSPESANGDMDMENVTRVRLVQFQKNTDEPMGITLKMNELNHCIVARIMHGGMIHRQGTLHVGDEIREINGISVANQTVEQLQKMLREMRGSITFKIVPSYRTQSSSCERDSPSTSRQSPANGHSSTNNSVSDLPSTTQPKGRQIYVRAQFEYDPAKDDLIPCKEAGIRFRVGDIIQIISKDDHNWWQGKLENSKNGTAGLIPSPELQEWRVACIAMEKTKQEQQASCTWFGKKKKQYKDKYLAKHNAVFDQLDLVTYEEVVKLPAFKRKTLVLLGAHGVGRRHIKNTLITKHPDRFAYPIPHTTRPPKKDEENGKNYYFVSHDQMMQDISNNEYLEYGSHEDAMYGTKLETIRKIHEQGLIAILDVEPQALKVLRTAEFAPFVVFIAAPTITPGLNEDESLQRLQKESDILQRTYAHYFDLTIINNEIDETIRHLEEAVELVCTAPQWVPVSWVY
Sequence of SRPK3 (Q9UPE1 whole entry): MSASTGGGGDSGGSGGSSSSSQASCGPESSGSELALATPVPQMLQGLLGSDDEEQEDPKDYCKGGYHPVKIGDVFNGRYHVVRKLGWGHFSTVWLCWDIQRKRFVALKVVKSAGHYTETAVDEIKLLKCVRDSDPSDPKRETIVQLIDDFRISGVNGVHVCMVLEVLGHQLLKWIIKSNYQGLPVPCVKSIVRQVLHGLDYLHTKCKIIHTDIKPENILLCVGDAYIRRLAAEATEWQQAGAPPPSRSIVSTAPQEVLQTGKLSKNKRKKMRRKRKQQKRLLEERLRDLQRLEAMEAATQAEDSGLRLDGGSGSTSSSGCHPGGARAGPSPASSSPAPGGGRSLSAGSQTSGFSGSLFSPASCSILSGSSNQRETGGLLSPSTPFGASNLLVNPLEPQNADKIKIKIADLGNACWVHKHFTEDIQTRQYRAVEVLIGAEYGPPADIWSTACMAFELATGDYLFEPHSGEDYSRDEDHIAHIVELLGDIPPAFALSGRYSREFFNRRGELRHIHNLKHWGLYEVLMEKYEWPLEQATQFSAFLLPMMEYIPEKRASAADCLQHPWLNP
Sequence of CSNK1D (P48730 whole entry): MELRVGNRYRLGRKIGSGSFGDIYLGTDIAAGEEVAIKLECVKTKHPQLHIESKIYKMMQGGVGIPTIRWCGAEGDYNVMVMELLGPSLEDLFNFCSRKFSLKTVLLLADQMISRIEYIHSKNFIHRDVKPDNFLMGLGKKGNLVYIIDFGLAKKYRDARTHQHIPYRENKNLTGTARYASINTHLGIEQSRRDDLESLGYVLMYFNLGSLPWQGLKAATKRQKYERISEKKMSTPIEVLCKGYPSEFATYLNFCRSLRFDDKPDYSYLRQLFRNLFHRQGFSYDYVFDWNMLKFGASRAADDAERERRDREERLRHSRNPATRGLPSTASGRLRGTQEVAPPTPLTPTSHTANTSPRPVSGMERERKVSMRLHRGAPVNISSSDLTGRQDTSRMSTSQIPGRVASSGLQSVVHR
T1 sequence (P23443 whole entry): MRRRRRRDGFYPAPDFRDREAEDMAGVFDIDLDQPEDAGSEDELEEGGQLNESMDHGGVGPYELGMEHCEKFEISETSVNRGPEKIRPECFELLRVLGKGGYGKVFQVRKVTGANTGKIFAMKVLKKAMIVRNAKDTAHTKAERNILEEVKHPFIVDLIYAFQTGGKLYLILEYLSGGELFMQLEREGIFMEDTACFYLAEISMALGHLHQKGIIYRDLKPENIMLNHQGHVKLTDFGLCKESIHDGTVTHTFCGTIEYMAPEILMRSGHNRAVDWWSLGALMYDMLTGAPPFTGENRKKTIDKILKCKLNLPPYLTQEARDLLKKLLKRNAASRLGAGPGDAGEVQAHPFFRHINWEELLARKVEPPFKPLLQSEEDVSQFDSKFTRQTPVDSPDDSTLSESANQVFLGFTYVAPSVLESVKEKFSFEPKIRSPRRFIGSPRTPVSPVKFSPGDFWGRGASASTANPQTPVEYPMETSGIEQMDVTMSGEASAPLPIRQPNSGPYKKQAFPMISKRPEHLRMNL
Sequence of MARK2 (Q7KZI7 whole entry): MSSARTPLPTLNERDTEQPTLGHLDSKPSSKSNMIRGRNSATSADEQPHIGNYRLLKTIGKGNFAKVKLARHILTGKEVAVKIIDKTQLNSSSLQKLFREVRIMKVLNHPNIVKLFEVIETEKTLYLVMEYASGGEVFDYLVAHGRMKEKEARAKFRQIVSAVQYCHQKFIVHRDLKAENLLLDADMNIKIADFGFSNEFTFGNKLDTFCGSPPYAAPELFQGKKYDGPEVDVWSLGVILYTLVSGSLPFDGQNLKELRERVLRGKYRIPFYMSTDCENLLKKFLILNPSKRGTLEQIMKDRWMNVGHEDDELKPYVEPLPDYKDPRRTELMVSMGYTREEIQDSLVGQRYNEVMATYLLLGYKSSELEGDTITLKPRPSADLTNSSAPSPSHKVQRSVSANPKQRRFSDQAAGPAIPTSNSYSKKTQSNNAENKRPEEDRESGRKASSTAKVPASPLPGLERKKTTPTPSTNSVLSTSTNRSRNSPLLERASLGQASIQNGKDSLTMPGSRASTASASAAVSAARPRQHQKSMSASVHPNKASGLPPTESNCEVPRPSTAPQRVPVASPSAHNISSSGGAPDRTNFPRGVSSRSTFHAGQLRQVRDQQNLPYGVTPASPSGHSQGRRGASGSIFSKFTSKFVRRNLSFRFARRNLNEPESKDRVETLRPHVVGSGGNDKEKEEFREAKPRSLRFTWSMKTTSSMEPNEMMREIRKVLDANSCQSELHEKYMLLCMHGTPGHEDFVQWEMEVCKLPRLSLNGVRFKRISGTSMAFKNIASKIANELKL

Turning to `O=C(/C=C/c1cnccc1-c1ccc(F)cc1)Nc1ccc(CCc2nnco2)cc1` [T-418, (2E)-3-(4-(4-fluorophenyl)pyridin-3-yl)-N-(4-(2-(1,3,4-oxadiazol-2-yl)ethyl)phenyl)acrylamide], the remaining binding at 0.3 µM came out at 100% at AURKB (sheet T-418); 100% on S6K1 (sheet T-418); 100% on NEK2 (sheet T-418); 79% at BMPR1A (sheet T-418); 81% on RET(V804L) (sheet T-418); 100% at BMPR1B (sheet T-418). The remaining binding at 0.3 µM on PCTK2 (sheet T-418) was 100%; on SBK1 (sheet T-418), 73%; on CSNK1D (sheet T-418) it was 84%; at STK35 (sheet T-418), 98%; at PYK2 (sheet T-418) it was 88%; on ALK(C1156Y) (sheet T-418) it was 91%. Moreover, the remaining binding at 0.3 µM at DYRK2 (sheet T-418) was found to be 100%; at SRPK3 (sheet T-418), 100%; at MARK2 (sheet T-418), 100%; on GRK7 (sheet T-418), 80%; at SGK2 (sheet T-418) it was 94%; at LCK (sheet T-418) it was 98%. For the same compound, the remaining binding at 0.3 µM on DYRK1A (sheet T-418) worked out at 100%; in experiment [1] (sheet T-418) it was 97%; in experiment [2] (sheet T-418), 96%; at CASK (sheet T-418), 89%.
`Cc1ncccc1Oc1sc(C(N)=O)c2c1-c1c(cnn1C)CC2` [T-474, 1-methyl-8-((2-methylpyridin-3-yl)oxy)-4,5-dihydro-1H-thieno[3,4-g]indazole-6-carboxamide]: the remaining binding at 0.3 µM on AURKB turned out to be 100%; at S6K1 it was 100%; on NEK2 it was 100%; at BMPR1A, 100%; on RET(V804L), 94%; on BMPR1B it was 100%. In addition, the remaining binding at 0.3 µM was determined as 100% on PCTK2; 91% at SBK1; 61% on CSNK1D; 100% at STK35; 100% at PYK2; 98% at ALK(C1156Y). The remaining binding at 0.3 µM was found to be 100% at DYRK2; 100% on SRPK3; 100% on MARK2; 100% on GRK7; 95% at SGK2; 100% on LCK. For the same compound, the remaining binding at 0.3 µM on DYRK1A amounted to 66%; in experiment [1], 100%; in [2], 100%; at CASK, 85%.

The values are drawn from PMC5862592, “CDK8/19 inhibition induces premature G1/S transition and ATR-dependent cell death in prostate cancer cells” (Oncotarget, 2018).
